Values quoted from earlier work as cited in patent publication US20110189317A1, “Method for Inhibiting the Activity of DPP-IV and Lowering Blood Glucose Level” (Naturalendo Tech Co., Ltd., priority 2006, published 2011).
Like-named read-outs stand apart in the source and are kept apart here.

Legend:
[1] = combined administration of Metformin with LAF237 or placebo, after 52 weeks; p<0.0001
insulin secretion = details: read-out: EC50 (half-maximal effective concentration), insulin secretion

EC50 (insulin secretion)	Compound	HbA1c difference [1]	blood glucose level (GLP-1 dropping for 4 hours, patients with secondary failure on oral hypoglycemic agent)	blood glucose level (intravenously, continuously for 1 week, regular diet)
–	N#C[C@@H]1CCCN1C(=O)CNC12CC3CC(CC(O)(C3)C1)C2 [LAF237]	1.1±0.2%	–	–
~0.01 nM	GLP-1: incretin hormone composed of total 30 amino acids, facilitates insulin secretion	–	complete normalization in the blood glucose level	nearly normal blood glucose level
